Data taken from patent publication US20110262996A1, “METHODS AND MATERIALS FOR DEGRADING PYRETHROID” (DANISCO A/S, priority 2008, published 2011).

Molecular target: T1, organophosphate hydrolase (OPH) (Brevundimonas diminuta, UniProt P0A434)
T1 construct: purchased Genencor DEFENZ 130G, lot 102-6181-001
Test: Time course of permethrin degradation by OPH, permethrin quantified by GCMS
Format: biochemical
Details: for Amount of Permethrin measured: 5 μL of 0.31 mg/mL OPH added to 995 μL of 2.5 mg/mL permethrin, pH 8.5, 22° C., ppm at the detector
Procedure: OPH was assayed for the ability to degrade permethrin. Its efficacy has been measured by performing time course experiments wherein a sample of OPH is added to a sample of permethrin. Degraded permethrin is then separated from the reaction mixture and detected on a GCMS.
Experimental Methods and Equipment. A Shimadzu GC2010 Gas Chromatograph with AOC 20i Auto Injector and a Shimadzu GCMS QP2010S Quadrapole Mass Spectrometer were used to analyze the experimental samples. A Supelco Equity-5 column was used (length: 30.0 m, thickness: 0.25 μm, diameter: 0.25 mm) for the assays. However, analogous columns may be substituted.
The equipment was run with the following parameters: • column oven temperature: 120° C. • injector temperature: 250° C. • injection: splitless • pre-run rinses: 3 • post-run rinses: 3 • sample rinses: 2 • linear velocity: 30 cm/sec • column flow: 0.64 mL/min • split ratio: 10 • detector voltage: relative to tuning • ion source temperature: 250° C. • interface temperature: 270° C. • solvent cut time: 3 min • run time: 35 min • temperature ramp: 5° C./min • scan speed: 833
Experimental assays were run using recombinant OPH (DEFENZ™ 130G, lot 102-6181-001; Genencor). Reagents included ammonium carbonate (Sigma 207861, lot 12919JC), cobalt chloride (JT Baker 1670-04, lot Y41640), hydrochloric acid (JT Baker 5620-02, lot A23506), propanol (Sigma 154970, lot 04242AD), and permethrin (Sigma-Pestanal 45614, lot 7079×).
Preparation of Enzyme Samples. OPH enzyme granules (2% protein) were dissolved in 33 mM ammonium carbonate buffer, pH 8.5, at 22° C. The reaction mixture was agitated for 30 minutes, first vortexed, then slowly agitated on a temperature-controlled platform shaker. A 1.5 mL sample of the enzyme solution was taken and centrifuged for 1 minute at 13,000 rpm. An aliquot of the resulting supernatant is used in the pesticide degradation reaction.
Preparation of Permethrin Samples. A stock permethrin sample at a concentration of 100 mg/mL was made by dissolving an appropriate amount of permethrin standard into propanol. The stock sample was stored under refrigeration. For generating standard curves on the GCMS, permethrin standards were made by diluting an aliquot of the stock permethrin sample into propanol to achieve a concentration of 1 mg/mL and 10 mg/mL. Permethrin to be used in the enzyme reaction was prepared by diluting an aliquot of the stock solution into 33 mM ammonium carbonate buffer at the desired pH for a particular reaction, and at room temperature.
Enzyme Reactions. In a 1.5 mL tube, 250 μL of a 10 mg/mL permethrin solution in propanol was added to 0.75 mL of 33 mM ammonium carbonate buffer, pH 8.5. A 995 μL aliquot of the permethrin solution was placed in a 1.5 mL gas chromatography (GC) sample vial, to which was added a 5 μL aliquot of a 0.31 mg/mL OPH enzyme solution. To inactivate the reaction at any specific time point, a 10 μL aliquot of the reaction solution was removed and added to 990 μL of propanol in a GC sample vial. These samples were then loaded on the GCMS autosampler.
Results and Discussion. This study was conducted to determine whether OPH degrades permethrin. To quantitatively measure amounts of permethrin, the Shimadzu GC with Quadrapole MS detector was used, as in previous pesticide experiments. A standard curve was generated using 1 mg/mL and 10 mg/mL stock solutions in propanol. Regression of the standard curve yielded R2 values of 0.9997 above 50 ppm and of 0.998 below 50 ppm.
Preliminary experiments were conducted to ascertain optimum concentrations for the enzyme reactions. […] Samples were taken at time points of 0, 1, 5, 15, and 30 minutes by removing 10 μL of the reaction mixture and adding it to 990 μL of propanol. […]

CC1(C)C(C=C(Cl)Cl)C1C(=O)OCc1cccc(Oc2ccccc2)c1 (stereo not shown) [permethrin]
degraded amount of permethrin at the detector (after 30 minutes): 12 ppm | Amount of Permethrin measured (time 0 min): 31.47 ppm | Amount of Permethrin measured (time 1 min): 25.8 ppm | Amount of Permethrin measured (time 5 min): 25.88 ppm | Amount of Permethrin measured (time 15 min): 24.64 ppm | Amount of Permethrin measured (time 30 min): 19.27 ppm | initial, rapid degradation of permethrin at the detector (within 1 minute of the start of the reaction): approximately 6 ppm
